Where a name gives a salt, the structure may show the parent alone. Read-outs that look alike come from different tables or passages of the source.

Common to all, as to assay: AK assay 384-well format, Prestwick library screening
For one experiment, the system named is E. coli. Format: cell-based, Escherichia coli. Particulars: 50 μM final drug concentration; for fold induction at 50 µM: Escherichia coli, 3 h.
The subject of another experiment is E. faecium. Format: cell-based, Enterococcus faecium. Particulars: 50 μM final drug concentration; for fold induction at 50 µM: Enterococcus faecium, 3 h.
Experiment [1] deals with A. baumannii strain 98-37-09. Type of experiment: cell-based, Acinetobacter baumannii. The following applies: 50 μM final drug concentration; for fold induction at 50 µM: Acinetobacter baumannii, 983709, 3 h.
For experiment [2], the system named is S. aureus strain USA300-0114. Format: cell-based, Staphylococcus aureus. The following applies: 50 μM final drug concentration; for fold induction at 50 µM: Staphylococcus aureus, USA300, 3 h.
The next experiment deals with K. pneumoniae. Format: cell-based, Klebsiella pneumoniae. Particulars: 50 μM final drug concentration; for fold induction at 50 µM: Klebsiella pneumoniae, 3 h.
The subject of the next experiment is E. cloacae. Format: cell-based, Enterobacter cloacae. The following applies: 50 μM final drug concentration; for fold induction at 50 µM: Enterobacter cloacae, 3 h.
For a further experiment, the system named is P. aeruginosa. Type of experiment: cell-based, Pseudomonas aeruginosa. Particulars: 50 μM final drug concentration; for fold induction at 50 µM: Pseudomonas aeruginosa, 3 h.
The mark [3] stands for this setting: 384-well format, cutoff for positive-scoring molecules 3-fold increase.
The mark [4] stands for this setting: cutoff for positive-scoring molecules 3-fold increase, read-out: AK-based Prestwick Library Screening Results, E. coli (fold increase in extracellular AK activity).
[5] abbreviates: cutoff for positive-scoring molecules 3-fold increase, read-out: AK-based Prestwick Library Screening Results, E. faecium (fold increase in extracellular AK activity).
Setting [6] is: cutoff for positive-scoring molecules 3-fold increase, read-out: AK-based Prestwick Library Screening Results, A. baumannii (fold increase in extracellular AK activity).
Setting [7] is: cutoff for positive-scoring molecules 3-fold increase, read-out: AK-based Prestwick Library Screening Results, S. aureus (fold increase in extracellular AK activity).
The mark [8] stands for this setting: cutoff for positive-scoring molecules 3-fold increase, read-out: AK-based Prestwick Library Screening Results, K. pneumoniae (fold increase in extracellular AK activity).
Setting [9] is: cutoff for positive-scoring molecules 3-fold increase, read-out: AK-based Prestwick Library Screening Results, E. cloacae (fold increase in extracellular AK activity).
[10] abbreviates: cutoff for positive-scoring molecules 3-fold increase, read-out: AK-based Prestwick Library Screening Results, P. aeruginosa (fold increase in extracellular AK activity).

On to `CO[C@H]1/C=C/O[C@@]2(C)Oc3c(C)c(O)c4c(c3C2=O)C2=NC3(CCN(CC(C)C)CC3)NC2=C(NC(=O)/C(C)=C\C=C\[C@H](C)[C@H](O)[C@@H](C)[C@@H](O)[C@@H](C)[C@H](OC(C)=O)[C@@H]1C)C4=O` [Rifabutin], for which the fold induction at 50 µM in the experiment on E. coli (planktonic E. coli, positive cutoff 3-fold increase, read-out: AK-based Prestwick library screening result, E. coli (fold increase in extracellular AK activity)) came to 1.3; in the experiment with E. faecium (planktonic E. faecium, positive cutoff 3-fold increase, read-out: AK-based Prestwick library screening result, E. faecium (fold increase in extracellular AK activity)) it was 1.2; in experiment [1] (planktonic A. baumannii, positive cutoff 3-fold increase, read-out: AK-based Prestwick library screening result, A. baumannii (fold increase in extracellular AK activity)), 3.3; in experiment [2] (planktonic S. aureus, positive cutoff 3-fold increase, read-out: AK-based Prestwick library screening result, S. aureus (fold increase in extracellular AK activity)), 0.7; in the experiment with K. pneumoniae (planktonic K. pneumoniae, positive cutoff 3-fold increase, read-out: AK-based Prestwick library screening result, K. pneumoniae (fold increase in extracellular AK activity)), 1.3; with E. cloacae (planktonic E. cloacae, positive cutoff 3-fold increase, read-out: AK-based Prestwick library screening result, E. cloacae (fold increase in extracellular AK activity)), 1.6. The fold induction at 50 µM in the experiment on P. aeruginosa (planktonic P. aeruginosa, positive cutoff 3-fold increase, read-out: AK-based Prestwick library screening result, P. aeruginosa (fold increase in extracellular AK activity)) came out at 0.6.

As to Alverine citrate salt, in the experiment with E. coli (setting [3]), the “AK-based Prestwick Library Screening Results, E. coli (increase in extracellular AK activity)” value is reported as 0.9. For the same compound, the “AK-based Prestwick Library Screening Results, E. faecium (increase in extracellular AK activity)” value with E. faecium (setting [3]) came out at 0.9. In experiment [1] (setting [3]), the “AK-based Prestwick Library Screening Results, A. baumannii (increase in extracellular AK activity)” value was determined as 0.9. The “AK-based Prestwick Library Screening Results, S. aureus (increase in extracellular AK activity)” value in experiment [2] (setting [3]) was 0.7. For the same compound, the “AK-based Prestwick Library Screening Results, K. pneumoniae (increase in extracellular AK activity)” value with K. pneumoniae (setting [3]) worked out at 0.7. The “AK-based Prestwick Library Screening Results, E. cloacae (increase in extracellular AK activity)” value with E. cloacae (setting [3]) stood at 0.9. The “AK-based Prestwick Library Screening Results, P. aeruginosa (increase in extracellular AK activity)” value in the experiment with P. aeruginosa (setting [3]) came to 0.8.

For the compound `[H]/N=C(/N)NS(=O)(=O)c1ccc(N)cc1` [Sulfaguanidine], the fold induction at 50 µM was 0.5 with E. coli (384-well format, cutoff for positive-scoring molecules 3-fold increase, read-out: AK-based Prestwick Library Screening Results, E. coli (increase in extracellular AK activity)); 1 in the experiment with E. faecium (384-well format, cutoff for positive-scoring molecules 3-fold increase, read-out: AK-based Prestwick Library Screening Results, E. faecium (increase in extracellular AK activity)); 0.5 in experiment [1] (384-well format, cutoff for positive-scoring molecules 3-fold increase, read-out: AK-based Prestwick Library Screening Results, A. baumannii (increase in extracellular AK activity)); 0.5 in experiment [2] (384-well format, cutoff for positive-scoring molecules 3-fold increase, read-out: AK-based Prestwick Library Screening Results, S. aureus (increase in extracellular AK activity)); 0.6 in the experiment on K. pneumoniae (384-well format, cutoff for positive-scoring molecules 3-fold increase, read-out: AK-based Prestwick Library Screening Results, K. pneumoniae (increase in extracellular AK activity)); 0.4 in the experiment with E. cloacae (384-well format, cutoff for positive-scoring molecules 3-fold increase, read-out: AK-based Prestwick Library Screening Results, E. cloacae (increase in extracellular AK activity)). Also, the fold induction at 50 µM in the experiment on P. aeruginosa (384-well format, cutoff for positive-scoring molecules 3-fold increase, read-out: AK-based Prestwick Library Screening Results, P. aeruginosa (increase in extracellular AK activity)) was 0.5.

Regarding `CC[N+](C)(C)Cc1ccccc1Br` [Bretylium tosylate], the fold induction at 50 µM with E. coli (setting [4]) turned out to be 1.3; with E. faecium (setting [5]) it was 1; in experiment [1] (setting [6]), 1.3; in experiment [2] (setting [7]), 1.3; with K. pneumoniae (setting [8]), 1.1; in the experiment with E. cloacae (setting [9]) it was 1.6. For the same compound, in the experiment with P. aeruginosa (setting [10]), the fold induction at 50 µM stood at 1.2.

Turning to `O=c1oc2ccccc2c(O)c1Cc1c(O)c2ccccc2oc1=O` [Dicumarol], the fold induction at 50 µM in the experiment on E. coli (setting [4]) turned out to be 1.1; in the experiment with E. faecium (setting [5]) it was 1.3; in experiment [1] (setting [6]) it was 1.3; in experiment [2] (setting [7]), 1.3; with K. pneumoniae (setting [8]), 1.1; in the experiment on E. cloacae (setting [9]), 1.5. Moreover, in the experiment on P. aeruginosa (setting [10]), the fold induction at 50 µM turned out to be 1.2.

Consider Clofilium tosylate, for which the “AK-based Prestwick Library Screening Results: E. coli (increase in extracellular AK activity)” value in the experiment on E. coli (planktonic E. coli, 384-well, cutoff for positive-scoring molecules 3-fold increase) is 1.5. Moreover, the “AK-based Prestwick Library Screening Results: E. faecium (increase in extracellular AK activity)” value in the experiment with E. faecium (planktonic E. faecium, 384-well, cutoff for positive-scoring molecules 3-fold increase) turned out to be 1.4. The “AK-based Prestwick Library Screening Results: A. baumannii (increase in extracellular AK activity)” value in experiment [1] (planktonic A. baumannii, 384-well, cutoff for positive-scoring molecules 3-fold increase) is 1.6. The “AK-based Prestwick Library Screening Results: S. aureus (increase in extracellular AK activity)” value in experiment [2] (planktonic S. aureus, 384-well, cutoff for positive-scoring molecules 3-fold increase) turned out to be 1.2. Besides, the “AK-based Prestwick Library Screening Results: K. pneumoniae (increase in extracellular AK activity)” value in the experiment with K. pneumoniae (planktonic K. pneumoniae, 384-well, cutoff for positive-scoring molecules 3-fold increase) is recorded as 1.5. The “AK-based Prestwick Library Screening Results: E. cloacae (increase in extracellular AK activity)” value in the experiment on E. cloacae (planktonic E. cloacae, 384-well, cutoff for positive-scoring molecules 3-fold increase) was determined as 1.2. For the same compound, the “AK-based Prestwick Library Screening Results: P. aeruginosa (increase in extracellular AK activity)” value in the experiment on P. aeruginosa (planktonic P. aeruginosa, 384-well, cutoff for positive-scoring molecules 3-fold increase) came to 1.3.

The values are drawn from US10004701B2, “Methods and compositions for treating infection” (UNIVERSITY OF ROCHESTER, priority 2012, dated 2018).
